# Data published in patent US9522907B2, “Anticancer agent and process for the preparation thereof” (COUNCIL OF SCIENTIFIC & INDUSTRIAL RESEARCH, priority 2014, dated 2016).
# Columns and labels:
# HCT-15 = assay: NCI in vitro cytotoxicity, HCT-15; settings: Homo sapiens
# Text: (§1) For these compounds results are expressed as growth inhibition (GI50) values as per NCI protocol.
# RXF 393 = assay: NCI in vitro cytotoxicity, RXF 393; settings: Homo sapiens
# Text: as §1
# NCI-H460 = assay: NCI in vitro cytotoxicity, NCI-H460; settings: Homo sapiens
# Text: as §1
# NCI/ADR-RES = assay: NCI in vitro cytotoxicity, NCI/ADR-RES; settings: Homo sapiens
# Text: as §1
# DU-145 = assay: NCI in vitro cytotoxicity, DU-145; settings: Homo sapiens
# Text: as §1
# HT29 = assay: NCI in vitro cytotoxicity, HT29; settings: Homo sapiens, HT-29
# Text: as §1
# OVCAR-3 = assay: NCI in vitro cytotoxicity, OVCAR-3; settings: Homo sapiens
# Text: as §1
# KM12 = assay: NCI in vitro cytotoxicity, KM12; settings: Homo sapiens
# Text: as §1
# SNB-75 = assay: NCI in vitro cytotoxicity, SNB-75; settings: Homo sapiens
# Text: as §1
# SK-MEL-28 = assay: NCI in vitro cytotoxicity, SK-MEL-28; settings: Homo sapiens
# Text: as §1
# SN 12C = assay: NCI in vitro cytotoxicity, SN 12C; settings: Homo sapiens, SN12C
# Text: as §1
# RPMI-8226 = assay: NCI in vitro cytotoxicity, RPMI-8226; settings: Homo sapiens
# Text: as §1
# HOP-62 = assay: NCI in vitro cytotoxicity, HOP-62; settings: Homo sapiens
# Text: as §1
# A498 = assay: NCI in vitro cytotoxicity, A498; settings: Homo sapiens
# Text: as §1
# OVCAR-8 = assay: NCI in vitro cytotoxicity, OVCAR-8; settings: Homo sapiens
# Text: as §1
# OVCAR-4 = assay: NCI in vitro cytotoxicity, OVCAR-4; settings: Homo sapiens
# Text: as §1
# ACHN = assay: NCI in vitro cytotoxicity, ACHN; settings: Homo sapiens
# Text: as §1
# MDA-MB-435 = assay: NCI in vitro cytotoxicity, MDA-MB-435; settings: Homo sapiens
# Text: as §1
# A549/ATCC = assay: NCI in vitro cytotoxicity, A549/ATCC; settings: Homo sapiens
# Text: as §1
# HOP-92 = assay: NCI in vitro cytotoxicity, HOP-92; settings: Homo sapiens
# Text: as §1
# TK-10 = assay: NCI in vitro cytotoxicity, TK-10; settings: Homo sapiens
# Text: as §1
# U251 = assay: NCI in vitro cytotoxicity, U251; settings: Homo sapiens, U-251
# Text: as §1
# NCI-H226 = assay: NCI in vitro cytotoxicity, NCI-H226; settings: Homo sapiens
# Text: as §1
# SK-MEL-2 = assay: NCI in vitro cytotoxicity, SK-MEL-2; settings: Homo sapiens
# Text: as §1
# NCI-H23 = assay: NCI in vitro cytotoxicity, NCI-H23; settings: Homo sapiens
# Text: as §1
# SW-620 = assay: NCI in vitro cytotoxicity, SW-620; settings: Homo sapiens
# Text: as §1
# NCI-H522 = assay: NCI in vitro cytotoxicity, NCI-H522; settings: Homo sapiens
# Text: as §1
# OVCAR-5 = assay: NCI in vitro cytotoxicity, OVCAR-5; settings: Homo sapiens
# Text: as §1
# SK-OV-3 = assay: NCI in vitro cytotoxicity, SK-OV-3; settings: Homo sapiens
# Text: as §1
# HL-60 (TB) = assay: NCI in vitro cytotoxicity, HL-60 (TB); assay type: cell-based; settings: Homo sapiens, Leukemia
# HCT-116 = assay: NCI in vitro cytotoxicity, HCT-116; settings: Homo sapiens
# Text: as §1
# UACC-62 = assay: NCI in vitro cytotoxicity, UACC-62; settings: Homo sapiens
# Text: as §1
# SF-295 = assay: NCI in vitro cytotoxicity, SF-295; settings: Homo sapiens
# Text: as §1
# SF-539 = assay: NCI in vitro cytotoxicity, SF-539; settings: Homo sapiens
# Text: as §1
# SK-MEL-5 = assay: NCI in vitro cytotoxicity, SK-MEL-5; settings: Homo sapiens
# Text: as §1
# UACC-257 = assay: NCI in vitro cytotoxicity, UACC-257; settings: Homo sapiens
# Text: as §1
# LOX IMVI = assay: NCI in vitro cytotoxicity, LOX IMVI; settings: Homo sapiens
# Text: as §1
# SF-268 = assay: NCI in vitro cytotoxicity, SF-268; settings: Homo sapiens
# Text: as §1
# CCRF-CEM = assay: NCI in vitro cytotoxicity, CCRF-CEM; settings: Homo sapiens
# Text: as §1
# HS 578T = assay: NCI in vitro cytotoxicity, HS 578T; settings: Homo sapiens
# Text: as §1
# M14 = assay: NCI in vitro cytotoxicity, M14; settings: Homo sapiens
# Text: as §1
# EKVX = assay: NCI in vitro cytotoxicity, EKVX; settings: Homo sapiens
# Text: as §1
# CAKI-1 = assay: NCI in vitro cytotoxicity, CAKI-1; settings: Homo sapiens
# Text: as §1
smiles,measurement,setting,value
"COc1cc(-c2nc(-c3ccc(-c4nc5cc(F)ccc5[nH]4)cc3)no2)cc(OC)c1OC [2i, 3-(4-(5-Fluoro-1H-benzo[d]imidazol-2-yl)phenyl)-5-(3,4,5-trimethoxyphenyl)-1,2,4-oxadiazole]",GI50,HCT-15,3.15 µM
same,GI50,RXF 393,1.9 µM
same,GI50,NCI-H460,2.97 µM
same,GI50,NCI/ADR-RES,2.49 µM
same,GI50,DU-145,3.96 µM
same,GI50,HT29,3.69 µM
same,GI50,OVCAR-3,2.56 µM
same,GI50,KM12,3.08 µM
same,GI50,SNB-75,7.74 µM
same,GI50,SK-MEL-28,3.78 µM
same,GI50,SN 12C,3.59 µM
same,GI50,RPMI-8226,1.94 µM
same,GI50,HOP-62,3.21 µM
same,GI50,A498,4.19 µM
same,GI50,OVCAR-8,2.36 µM
same,GI50,OVCAR-4,2.82 µM
same,GI50,ACHN,3.72 µM
same,GI50,MDA-MB-435,2.73 µM
same,GI50,A549/ATCC,3.42 µM
same,GI50,HOP-92,1.76 µM
same,GI50,TK-10,8.27 µM
same,GI50,U251,3.03 µM
same,GI50,NCI-H226,2.72 µM
same,GI50,SK-MEL-2,4.21 µM
same,GI50,NCI-H23,2.5 µM
same,GI50,SW-620,3.61 µM
same,GI50,NCI-H522,3.04 µM
same,GI50,OVCAR-5,5.59 µM
same,GI50,SK-OV-3,4.12 µM
same,GI50,HL-60 (TB),2.24 µM
same,GI50,HCT-116,2.13 µM
same,GI50,UACC-62,2.35 µM
same,GI50,SF-295,2.31 µM
same,GI50,SF-539,3.37 µM
same,GI50,SK-MEL-5,2.22 µM
same,GI50,UACC-257,3.7 µM
same,GI50,LOX IMVI,1.65 µM
same,GI50,SF-268,3.99 µM
same,GI50,CCRF-CEM,2.97 µM
same,GI50,HS 578T,2.27 µM
same,GI50,M14,3.23 µM
same,GI50,EKVX,3.45 µM
same,GI50,CAKI-1,2.76 µM
"COc1ccc2[nH]c(-c3ccc(-c4noc(-c5cc(OC)c(OC)c(OC)c5)n4)cc3)nc2c1 [5i, 3-(4-(5-Methoxy-1H-benzo[d]imidazol-2-yl)phenyl)-5-(3,4,5-trimethoxyphenyl)-1,2,4-oxadiazole]",GI50,HCT-15,1.49 µM
same,GI50,RXF 393,5.24 µM
same,GI50,NCI-H460,4.6 µM
same,GI50,NCI/ADR-RES,3.32 µM
same,GI50,DU-145,9.48 µM
same,GI50,HT29,2.7 µM
same,GI50,OVCAR-3,42.5 µM
same,GI50,KM12,7.52 µM
same,GI50,SNB-75,12.5 µM
same,GI50,SK-MEL-28,9.59 µM
same,GI50,SN 12C,13.2 µM
same,GI50,RPMI-8226,6.02 µM
same,GI50,HOP-62,4.44 µM
same,GI50,A498,28.5 µM
same,GI50,OVCAR-8,4.93 µM
same,GI50,OVCAR-4,1.88 µM
same,GI50,ACHN,28.2 µM
same,GI50,MDA-MB-435,4.27 µM
same,GI50,A549/ATCC,5.65 µM
same,GI50,HOP-92,14.3 µM
same,GI50,TK-10,4.62 µM
same,GI50,U251,1.68 µM
same,GI50,NCI-H226,2.27 µM
same,GI50,SK-MEL-2,18.9 µM
same,GI50,NCI-H23,4.1 µM
same,GI50,SW-620,5.89 µM
same,GI50,NCI-H522,6.89 µM
same,GI50,OVCAR-5,16.7 µM
same,GI50,SK-OV-3,25.3 µM
same,GI50,HL-60 (TB),2.02 µM
same,GI50,HCT-116,1.9 µM
same,GI50,UACC-62,14 µM
same,GI50,SF-295,15 µM
same,GI50,SF-539,2 µM
same,GI50,SK-MEL-5,3.25 µM
same,GI50,UACC-257,17.1 µM
same,GI50,LOX IMVI,13.3 µM
same,GI50,SF-268,7.13 µM
same,GI50,CCRF-CEM,2.2 µM
same,GI50,HS 578T,9.49 µM
same,GI50,M14,5.47 µM
same,GI50,EKVX,26.2 µM
same,GI50,CAKI-1,23.4 µM
